From patent publication US20220305031A1, “METHODS FOR REDUCING TUMOR PROGRESSION AND FIBROSIS AND INCREASING ADAPTIVE IMMUNITY IN MALIGNANCIES” (GEORGETOWN UNIVERSITY, priority 2019, published 2022)

Columns and labels:
Assay type in all cases: in vivo
NeuT/ATTAC mice [1] = assay: FACS analysis of immune cell subsets in tumor infiltrates and spleen
Experimental: (§1) Fibrosis was induced in mice at 6 w.o.a. by weekly i.p. injections of 0.4 mg/kg AP dissolved in vehicle (4% ethanol, 10% PEG-400, and 1.75% Tween-20 in water). Mice were maintained on LabDiet 5053 chow supplemented with 0.05% DMHCA (100 mg/kg) beginning at 8 w.o.a. Control mice received the standard diet.
To assess whether DMHCA treatment could reduce immune tolerance in NeuT/ATTAC mice, a model that is highly resistant to PD-1 immunotherapy, spleen and tumor immune infiltrates were analyzed by FACS (FIGS. 6A-6C).

[2] = tested on: tumors from NeuT/ATTAC mice; assay: FLIM and SHG microscopy of tumor sections; conditions: DMHCA-treated tumor vs control tumor
Source text: SHG imaging using a multiphoton microscope equipped with a Deep Imaging Via Emission Recovery (DIVER) detector (Crosignani et al., “Deep Tissue Fluorescence Imaging and in Vivo Biological Applications,” J. Biomed. Opt. 17(11):116023 (2012), which is hereby incorporated by reference in its entirety) can distinguish collagen accumulation in the early stages of fibrosis unlike standard histological analysis (Dvornikov & Gratton, “Imaging in Turbid Media: A Transmission Detector Gives 2-3 Order of Magnitude Enhanced Sensitivity Compared to Epi-Detection Schemes,” Biomed. Opt. Express 7:3747-755 (2016); Ranjit et al., “Label-Free Fluorescence Lifetime and Second Harmonic Generation Imaging Microscopy Improves Quantification of Experimental Renal Fibrosis,” Kidney Int. 90:1123-1128 (2016), each of which is hereby incorporated by reference in its entirety). DIVER, by virtue of detection in the direction of light propagation is especially suitable for SHG detection and a combination of SHG and FLIM enables spatial mapping of collagen I and III, which is important for fibrosis. Additionally, this type of imaging is applicable to unstained tissues, which eliminates the uncertainty from issues associated with labeling efficiency. Moreover, the same tissue can be used for other purposes after imaging is complete. […]

[3] = tested on: tumors from NeuT/ATTAC mice; assay: Immunohistochemistry of FFPE tumor sections
Experimental: as §1
Mammary tissue was excised and FFPE sections were prepared (Yuan et al., “MMTV-NeuT/ATTAC Mice: A New Model for Studying the Stromal Tumor Microenvironment,” Oncotarget. 9(8):8042-53 (2018); Yuan et al., “PPARdelta Induces Estrogen Receptor-Positive Mammary Neoplasia Through an Inflammatory and Metabolic Phenotype linked to mTOR Activation,” Cancer Res. 73(14):4349-4361 (2013); Yin et al., “Peroxisome Proliferator-Activated Receptor Delta and Gamma Agonists Differentially Alter Tumor Differentiation and Progression During Mammary Carcinogenesis,” Cancer Res. 65:3950-3957 (2005); Yin et al., “Inhibition of Peroxisome Proliferator-Activated Receptor Gamma Increases Estrogen Receptor-Dependent Tumor Specification,” Cancer Res. 69(2):687-694 (2009), each of which is hereby incorporated by reference in its entirety). Primary antibodies: PD-L1 (1:200, 17952-1-AP, Proteintech), SMA (1:100, sc130617, Santa Cruz), Ki67 (1:50, CRM325, Biocare), CD31 (1:100, ab56299, Abcam), CXCL1 (1:120, sc-1374, Santa Cruz), F4/80 (1:30, 14-4801-85, eBioscience), Foxp3 (1:50, 14-5773-82, e Bioscience), CD8a (1:40, 14-0808-82, eBioscience). Collagen was stained with Picrosirius Red stain (Yuan et al., “MMTV-NeuT/ATTAC Mice: A New Model for Studying the Stromal Tumor Microenvironment,” Oncotarget. 9(8):8042-53 (2018), which is hereby incorporated by reference in its entirety).

NeuT/ATTAC mice [4] = assay: Tumor development and multiplicity in AP-treated NeuT/ATTAC mice on DMHCA diet; conditions: diet with 0.05% DMHCA (~100 mg/kg/day)
Source text: The derivation and characteristics of MMTV-PPARd mice was reported in Yuan et al., “PPARdelta Induces Estrogen Receptor-Positive Mammary Neoplasia Through an Inflammatory and Metabolic Phenotype Linked to mTOR Activation,” Cancer Res. 73(14):4349-4361 (2013), which is hereby incorporated by reference in its entirety. […] FAT-ATTAC mice on a C57BL/6 background (Pajvani et al., “Fat Apoptosis Through Targeted Activation of Caspase 8: A New Mouse Model of Inducible and Reversible Lipoatrophy,” Nat. Med. 11(7):797-803 (2005); Landskroner-Eiger et al., “Morphogenesis of the Developing Mammary Gland. Stage-Dependent Impact of Adipocytes,” Dev. Biol. 344(2):968-978 (2010), each of which is hereby incorporated by reference in its entirety) were crossed into the FVB strain for several generations. Derivation of NeuT/ATTAC mice was reported in Yuan et al., “MMTV-NeuT/ATTAC Mice: A New Model for Studying the Stromal Tumor Microenvironment,” Oncotarget. 9(8):8042-8053 (2018), which is hereby incorporated by reference in its entirety. All animals were fed LabDiet 5303 and monitored for the NeuT, PPARd, and/or FKBPv-caspase 8 transgenes by genotyping.
as §1
Statistical significance was evaluated using the Mantel-Cox log-rank test for survival analysis and Prism GraphPad software or the two-tailed Student's t test to evaluate differences between means at a significance of P<0.05.
A study was designed to evaluate whether DMHCA treatment could abrogate tumor development in NeuT/ATTAC mice treated with AP.

[5] = NeuT/ATTAC mice, DMHCA from two months of age

C[C@H](CCC(=O)N(C)C)[C@H]1CC[C@H]2[C@@H]3CC=C4C[C@@H](O)CC[C@]4(C)[C@H]3CC[C@]12C [DMHCA, dimethyl-3-beta-hydroxy-cholenamide]
PD1+/Foxp3+ CD4+ T cells (NeuT/ATTAC mice [1]; [5]): increase
CD4+ effector T cells (NeuT/ATTAC mice [1]; spleen, vs control): enhanced
CD8+ effector T cells (NeuT/ATTAC mice [1]; spleen, vs control): enhanced
G-MDSC (NeuT/ATTAC mice [1]; spleen, vs control): reduced
Treg cells (NeuT/ATTAC mice [1]; spleen, vs control): markedly reduced
CD4+ effector T cells (NeuT/ATTAC mice [1]; tumor infiltrates, vs control): increased
CD8+ effector T cells (NeuT/ATTAC mice [1]; tumor infiltrates, vs control): increased
G-MDSC (NeuT/ATTAC mice [1]; tumor infiltrates, vs control): reduced
M-MDSC (NeuT/ATTAC mice [1]; tumor infiltrates, vs control): reduced
Treg (NeuT/ATTAC mice [1]; tumor infiltrates, vs control): reduced
collagen I & collagen III detected by FLIM ([2]; FIG. 8C-8D): little collagen
collagen I by SHG microscopy ([2]; FIG. 8E-8G): markedly reduced
CXCL1 expression ([3]; IHC of tumors, FIG. 7): reduced CXCL1 expression
fibroblast activation protein expression [3, 5]: reduced
smooth muscle actin expression [3, 5]: reduced
tumor development (NeuT/ATTAC mice [4]; NeuT/ATTAC mice treated with AP, FIG. 5A): reduction in tumor development
decrease in tumor multiplicity (NeuT/ATTAC mice [4]; NeuT/ATTAC mice treated with AP, FIG. 5B): 10 fold
toxicity of dietary dose (NeuT/ATTAC mice [4]): nontoxic
